For series [1], the system named is A/Roma-ISS/02/08 H1N1 oseltamivir-sensitive virus. Particulars: reference peptides; ref Scala et al. (2017) [14]; read-out: HI Titer (IC50) A/Roma-ISS/02/08 H1N1; cited from earlier work.
Series [2] deals with A/Parma/05/06 H3N2. Set-up: method as in Scala et al. (2017) [14]. Particulars: reference peptides; ref Scala et al. (2017) [14]; read-out: HI Titer (IC50) A/Parma/05/06 H3N2; cited from earlier work.
Series [3] relates to A/Parma/05/06 H3N2. Particulars: MDCK cells; ref Scala et al. (2017) [14]; cited from earlier work.
Another series can be described thus: Cytotoxicity assay. The series is classed as cell-based, canine. Particulars: dog, MDCK cells. How it is done:
This procedure was performed as reported elsewhere. Briefly, two-fold serial dilutions of each peptide in culture medium were incubated at 37 °C with confluent MDCK cells grown in 96-well tissue culture microplates (Nalge Nunc Europe Ltd., Neerijse, Belgium). After 24 h, the following parameters were evaluated: cell morphology, which was examined by light microscopy; cell viability, which was determined by neutral red staining as already described by us; and cell proliferation, which was evaluated quantitatively by microscopic counts after dispersion into individual cells with trypsin.

The test system of the next series is A/Roma-ISS/02/08 H1N1. Particulars: MDCK cells; ref Scala et al. (2017) [14]; cited from earlier work.
A further series relates to A/Parma/24/09 H1N1. Particulars: MDCK cells; ref Scala et al. (2017) [14]; cited from earlier work.
In series [4] the target is HA (H1N1 hemagglutinin, Cat No.: Z03181, GenScript). Particulars: read-out: MST KD.
The target of series [5] is HA (H1N1 hemagglutinin, Cat No: Z03181, GenScript). Particulars: read-out: SPR KD.
Series [6] has as its system A/Roma-ISS/02/08 H1N1 oseltamivir-sensitive virus. Particulars: A/Roma-ISS/02/08 oseltamivir-sensitive virus, 1 h.
The subject of series [7] is A/Parma/05/06 H3N2. Particulars: A/Parma/05/06, 1 h.

Several values for one entry are separate records, joined by “and”; a condition that tells them apart may be missing. Identical values can stand only once. Like-named read-outs stand apart in the source and are kept apart here. Where a SMILES comes first, the peptide text is derived from it.

The values below come from publication PMC8537277 (Pharmaceuticals, 2021).

Turning to `CC(=O)N[C@@H](CO)C(=O)N[C@@H](CCCCN)C(=O)N[C@@H](Cc1c[nH]cn1)C(=O)N[C@@H](CO)C(N)=O` [Peptide 1, Ac-SKHS-NH2] (Ac-SKHS-NH2), the IC50 in [1] was 0.1 nM; in the series on A/Parma/05/06 H3N2 [2], 12 nM. For the same compound, the EC50 (commonly the concentration at which the effect is half-maximal) with A/Parma/05/06 H3N2 [3] was 5 pM; in the series on A/Roma-ISS/02/08 H1N1, 3 pM. In addition, in “Cytotoxicity assay”, the CC50 – broadly, the concentration giving 50% cytotoxicity – at 24 h is over 25 µM.

Take `CC(=O)N[C@@H](CO)C(=O)N[C@@H](CC(C)C)C(=O)N[C@@H](CC(=O)O)C(=O)N[C@@H](CS)C(N)=O` [Peptide 2, Ac-SLDC-NH2] (Ac-SLDC-NH2): in the series with A/Parma/05/06 H3N2 [2], the IC50 was 1.5 nM. The EC50 with A/Parma/24/09 H1N1 is 4.6 pM; in the series with A/Parma/05/06 H3N2 [3], 4.3 pM.

`CC(=O)N[C@@H](C)C(=O)N[C@@H](CCCCN)C(=O)N[C@@H](Cc1c[nH]cn1)C(=O)N[C@@H](CO)C(N)=O` [Peptide 3] (Ac-AKHS-NH2): the Kd (commonly the constant that tells how readily two partners part at equilibrium) is 3.12 ± 0.11 µM in series [4] and 2700 ± 40 nM in [5]. Also, the IC50 in [6] worked out at 0.6 nM; with A/Parma/05/06 H3N2 [7], 12 nM.

On to `CC(=O)N[C@@H](CO)C(=O)N[C@@H](C)C(=O)N[C@@H](Cc1c[nH]cn1)C(=O)N[C@@H](CO)C(N)=O` [Peptide 4, Ac-SAHS-NH2] (Ac-SAHS-NH2), for which the Kd in [4] was 0.00822 µM and 0.0082 µM; in series [5], 3.57 ± 0.12 nM. Further, in “Cytotoxicity assay”, the 50% cytotoxic concentration (CC50) at 24 h was over 25 µM.

Regarding `CC(=O)N[C@@H](CO)C(=O)N[C@@H](CCCCN)C(=O)N[C@@H](C)C(=O)N[C@@H](CO)C(N)=O` [Peptide 5] (Ac-SKAS-NH2), the values for the Kd in series [4] and in series [5] were 7.01 ± 0.09 µM and 1030 ± 10 nM, respectively.

With `CC(=O)N[C@@H](CO)C(=O)N[C@@H](CCCCN)C(=O)N[C@@H](Cc1c[nH]cn1)C(=O)N[C@@H](C)C(N)=O` [Peptide 6] (Ac-SKHA-NH2), the Kd in series [4] was 11.4 ± 0.17 µM; in [5] it was 6750 ± 810 nM.

With `CC(=O)N[C@@H](C)C(=O)N[C@@H](CC(C)C)C(=O)N[C@@H](CC(=O)O)C(=O)N[C@@H](CS)C(N)=O` [Peptide 7] (Ac-ALDC-NH2), the Kd in series [4] stood at 21.2 ± 0.41 µM; in [5], 27.7 ± 1.7 nM.

`CC(=O)N[C@@H](CO)C(=O)N[C@@H](C)C(=O)N[C@@H](CC(=O)O)C(=O)N[C@@H](CS)C(N)=O` [Peptide 8] (Ac-SADC-NH2): the figures for the Kd in series [4] and in [5] were 6.38 ± 0.21 µM and 2190 ± 510 nM, respectively.

Turning to `CC(=O)N[C@@H](CO)C(=O)N[C@@H](CC(C)C)C(=O)N[C@@H](C)C(=O)N[C@@H](CS)C(N)=O` [Peptide 9] (Ac-SLAC-NH2), the Kd is 0.0058 ± 0.0003 µM in series [4] and 2570 ± 340 nM in series [5].

In the case of `CC(=O)N[C@@H](CO)C(=O)N[C@@H](CC(C)C)C(=O)N[C@@H](CC(=O)O)C(=O)N[C@@H](C)C(N)=O` [Peptide 10] (Ac-SLDA-NH2), the dissociation constant Kd was 2.69 ± 0.09 µM in series [4] and 343 ± 19 nM in series [5]. This compound had an IC50 with A/Parma/05/06 H3N2 [7] of 0.0021 nM.
